Results from US12673961B2 (Agios Pharmaceuticals, Inc., priority 2022, dated 2026).

What follows are compounds tested against T1, human PAH with the R408W mutation (Homo sapiens, UniProt P00439, R408W) (assay: Cell Based Phenylalanine Flux Assay). Settings: A375 cells expressing R408W PAH; 24 hrs with compound, then 20 μM sepiapterin and 800 μM 13C9,15N-Phenylalanine for 4 hours; 13C-Tyrosine in media by LC-MS; average where tested multiple times; read-out: AC50.
T1 construct: expressed in transfected cells
T1 sequence (P00439 1-452 R408W): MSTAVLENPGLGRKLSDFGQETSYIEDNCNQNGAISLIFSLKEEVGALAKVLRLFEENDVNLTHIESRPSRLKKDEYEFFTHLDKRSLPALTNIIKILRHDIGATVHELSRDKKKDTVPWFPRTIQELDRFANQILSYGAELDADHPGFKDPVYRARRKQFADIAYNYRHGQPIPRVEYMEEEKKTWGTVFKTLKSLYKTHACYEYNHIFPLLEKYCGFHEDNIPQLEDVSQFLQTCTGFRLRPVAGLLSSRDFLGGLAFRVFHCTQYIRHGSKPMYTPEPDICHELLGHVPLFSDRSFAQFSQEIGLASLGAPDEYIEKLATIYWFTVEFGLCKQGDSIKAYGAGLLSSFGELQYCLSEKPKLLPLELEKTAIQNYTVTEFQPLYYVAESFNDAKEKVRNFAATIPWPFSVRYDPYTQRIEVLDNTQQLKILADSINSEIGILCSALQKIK
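Further: Ten-point dose curve from 2-fold serial dilutions, run in duplicate at 0.5% DMSO final, tracer step used 20 µM sepiapterin and 800 µM labeled phenylalanine.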

First: O=C(c1cnn(-c2ccccn2)c1Cl)N1CCc2[nH]cnc2[C@@H]1c1cc2ccccn2n1 (single isomer, unassigned)
Second: O=C(c1cnc(-c2ncccn2)o1)N1CCc2[nH]cnc2[C@H]1c1cc2ccccn2n1 (single isomer, unassigned)
The AC50 of the first is higher: over 5000 nM for the first, 1000 to 5000 nM for the second.

Compared with `FC(F)c1cccn2nc([C@H]3c4nc[nH]c4CCN3c3nnc(-c4cccnc4)o3)cc12` (single isomer, unassigned), `FC(F)(F)c1cccn2nc([C@@H]3c4nc[nH]c4CCN3c3nnc(-c4cccnc4)o3)cc12` (single isomer, unassigned) is lower in AC50: over 5000 nM for the first, 1000 to 5000 nM for the second.

`Cc1c(-c2ncc(C(=O)N3CCc4[nH]cnc4[C@H]3c3cc4ccccn4n3)o2)cnn1C` (single isomer, unassigned) and `O=C(c1nnc(-c2ccc(C(F)(F)F)cn2)o1)N1CCc2[nH]cnc2[C@H]1c1cc2ccccn2n1` (single isomer, unassigned) fall in the same range of AC50: 1000 to 5000 nM for the first, 1000 to 5000 nM for the second.

`Cc1n[nH]cc1-c1nnc(C(=O)N2CCc3[nH]cnc3[C@H]2c2cc3c(C)cccn3n2)o1` (single isomer, unassigned) and `Cn1cncc1-c1nnc(C(=O)N2CCc3[nH]cnc3C2c2cc3c(C(F)(F)F)cccn3n2)o1` (single isomer, unassigned) [4S enantiomer of 2-(1-methyl-1H-imidazol-5-yl)-5-14-[4-(trif] fall in the same range of AC50: 1000 to 5000 nM for the first, 1000 to 5000 nM for the second.

Compared with `FC1(F)CC(c2nnc(N3CCc4[nH]cnc4[C@H]3c3cc4c(C(F)(F)F)cccn4n3)o2)C1` (single isomer, unassigned), `FC1(F)CC(c2nnc(N3CCc4[nH]cnc4C3c3cc4ccccn4n3)o2)C1` (single isomer, unassigned) [4S enantiomer of 2-(3,3-difluorocyclobutyl)-5-[4-{pyrazolo{1] is higher in AC50: 1000 to 5000 nM for the first, over 5000 nM for the second.

Compared with `O=C(c1nnc(C2CC(F)(F)C2)o1)N1CCc2[nH]cnc2[C@H]1c1cc2ccccn2n1` (single isomer, unassigned), `O=C(C1CC1)N1CCc2[nH]cnc2[C@H]1c1cc2c(F)cccn2n1` (single isomer, unassigned) is higher in AC50: 1000 to 5000 nM for the first, over 5000 nM for the second.

Compared with `CC(C)(F)c1nnc(N2CCc3[nH]cnc3[C@H]2c2cc3c(C4CC4)cccn3n2)o1` (single isomer, unassigned), `c1cc(C2CC2)c2cc([C@@H]3c4nc[nH]c4CCN3c3nnc(-c4ccncn4)o3)nn2c1` (single isomer, unassigned) is lower in AC50: over 5000 nM for the first, 1000 to 5000 nM for the second.

`CC(C)c1cccn2nc([C@@H]3c4nc[nH]c4CCN3c3nnc(-c4ncccn4)o3)cc12` (single isomer, unassigned) and `Clc1cccn2nc([C@@H]3c4nc[nH]c4CCN3c3nnc(-c4ncccn4)o3)cc12` (single isomer, unassigned) fall in the same range of AC50: 1000 to 5000 nM for the first, 1000 to 5000 nM for the second.

`Cc1cccc2cc([C@@H]3c4nc[nH]c4CCN3c3nnc(C4CCC4)o3)nn12` (single isomer, unassigned) and `Fc1cccn2nc([C@@H]3c4nc[nH]c4CCN3c3nnc(-c4cccnn4)o3)cc12` (single isomer, unassigned) fall in the same range of AC50: 1000 to 5000 nM for the first, 1000 to 5000 nM for the second.

`Cc1cccn2nc([C@@H]3c4nc[nH]c4CCN3c3cccc(F)n3)cc12` (single isomer, unassigned) and `Fc1cccnc1-c1nnc(N2CCc3[nH]cnc3[C@H]2c2cc3c(C(F)(F)F)cccn3n2)o1` (single isomer, unassigned) fall in the same range of AC50: 1000 to 5000 nM for the first, 1000 to 5000 nM for the second.

`FC(F)(F)c1ccc(N2CCc3[nH]cnc3C2c2cc3cccc(C(F)(F)F)n3n2)nc1` (single isomer, unassigned) [4S enantiomer of 5-(trifluoromethyl)-2-[4-[7-(trifluoromethy] gave an AC50 of 1000 to 5000 nM.

Same assay, conditions: A375 cells expressing human R408W PAH; 24 hrs compound incubation; 13C-Tyrosine by LC-MS; average where tested multiple times; read-out: AC50

First: N#Cc1ncoc1C(=O)N1CCc2[nH]cnc2[C@H]1c1cc2ccccn2n1 (single isomer, unassigned) [Example 640]
Second: N#Cc1ncoc1C(=O)N1CCc2[nH]cnc2[C@@H]1c1cc2ccccn2n1 (single isomer, unassigned) [Example 641]
The AC50 of the first is lower: 500 to 1000 nM for the first, over 5000 nM for the second.

First: Cn1ccc(-c2nnc(C(=O)N3CCc4[nH]cnc4[C@@H]3c3cc4c(C(F)(F)F)cccn4n3)o2)n1 (single isomer, unassigned) [Example 837]
Second: Cn1cnc(-c2nnc(C(=O)N3CCc4[nH]cnc4C3c3cc4c(C(F)(F)F)cccn4n3)o2)c1 (stereo in doubt) [Example 934, (S)-(5-(1-methyl-1H-imidazol-4-yl)-1,3,4-oxadiazol-2-yl)(4-(4-(trifluoromethyl)pyrazolo[1,5-a]pyridin-2-yl)-6,7-dihydro-1H-imidazo [4,5-c]pyridin-5(4H)-yl)methanone]
The AC50 of the first is higher: over 5000 nM for the first, 500 to 1000 nM for the second.

First: Cn1nc(C(F)F)nc1C(=O)N1CCc2[nH]cnc2C1c1cc2c(Cl)cccn2n1 (stereo in doubt) [Example 781, (R)-(4-(4-chloropyrazolo [1,5-a]pyridin-2-yl)-6,7-dihydro-1H-imidazo[4,5-c]pyridin-5(4H)-yl)(3-(difluoromethyl)-1-methyl-1H-1,2,4-triazol-5-yl)methanone]
Second: Cn1nc(Cl)cc1C(=O)N1CCc2[nH]cnc2[C@@H]1c1cc2ccccn2n1 [Example 681, (R)-(3-chloro-1-methyl-1H-pyrazol-5-yl)(4-(pyrazolo [1,5-a]pyridin-2-yl)-6,7-dihydro-1H-imidazo[4,5-c]pyridin-5(4H)-yl)methanone]
The AC50 of the first is lower: 1000 to 5000 nM for the first, over 5000 nM for the second.

First: CCOc1cccc2cc(C3c4nc[nH]c4CCN3C(=O)c3oc(C(C)(C)O)nc3C(F)F)nn12 (stereo in doubt) [Example 1245, (S)-(4-(difluoromethyl)-2-(2-hydroxypropan-2-yl)oxazol-5-yl)(4-(7-ethoxypyrazolo [1,5-a]pyridin-2-yl)-6,7-dihydro-1H-imidazo[4,5-c]pyridin-5(4H)-yl)methanone]
Second: CC(F)(F)c1ncc(C(=O)N2CCc3[nH]cnc3[C@@H]2c2cc3ccccn3n2)s1 [Example 613, (R)-(2-(1,1-difluoroethyl)thiazol-5-yl)(4-(pyrazolo [1,5-a]pyridin-2-yl)-6,7-dihydro-1H-imidazo[4,5-c]pyridin-5(4H)-yl)methanone]
The AC50 of the first is lower: 500 to 1000 nM for the first, 1000 to 5000 nM for the second.

First: O=C(c1oc(-c2ccccn2)nc1C1CC1)N1CCc2[nH]cnc2[C@H]1c1cc2ccccn2n1 [Example 622, (S)-(4-cyclopropyl-2-(pyridin-2-yl)oxazol-5-yl)(4-(pyrazolo[1,5-a]pyridin-2-yl)-6,7-dihydro-1H-imidazo[4,5-c]pyridin-5(4H)-yl)methanone]
Second: Cn1ccc(-c2nnc(C(=O)N3CCc4[nH]cnc4[C@H]3c3cc4ccccn4n3)o2)n1 [Example 658, (S)-(5-(1-methyl-1H-pyrazol-3-yl)-1,3,4-oxadiazol-2-yl)(4-(pyrazolo[1,5-a]pyridin-2-yl)-6,7-dihydro-1H-imidazo[4,5-c]pyridin-5(4H)-yl)methanone]
The AC50 of the first is lower: 500 to 1000 nM for the first, 1000 to 5000 nM for the second.

First: O=C(CC1CC(F)C1)N1CCc2[nH]cnc2[C@H]1c1cc2ccccn2n1 (stereo partly drawn) [Example 636, (S)-2-(3-fluorocyclobutyl)-1-(4-(pyrazolo[1,5-a]pyridin-2-yl)-6,7-dihydro-1H-imidazo [4,5-c]pyridin-5(4H)-yl)ethenone]
Second: O=C(CC1CC(F)C1)N1CCc2[nH]cnc2[C@@H]1c1cc2ccccn2n1 (stereo partly drawn) [Example 637, (R)-2-(3-fluorocyclobutyl)-1-(4-(pyrazolo[1,5-a]pyridin-2-yl)-6,7-dihydro-1H-imidazo [4,5-c]pyridin-5(4H)-yl)ethanone]
The AC50 of the first is lower: under 500 nM for the first, 1000 to 5000 nM for the second.

Compared with `Cc1cc(F)ccc1-c1nnc(C(=O)N2CCc3[nH]cnc3[C@@H]2c2cc3ccccn3n2)o1` [Example 655, (R)-(5-(4-fluoro-2-methylphenyl)-1,3,4-oxadiazol-2-yl)(4-(pyrazolo [1,5-a]pyridin-2-yl)-6,7-dihydro-1H-imidazo[4,5-c]pyridin-5(4H)-yl)methanone], `N#Cc1ncoc1C(=O)N1CCc2[nH]cnc2[C@@H]1c1cc2ccc(Cl)cn2n1` [Example 685, (R)-5-(4-(6-chloropyrazolo [1,5-a]pyridin-2-yl)-4,5,6,7-tetrahydro-1H-imidazo[4,5-c]pyridine-5-carbonyl) oxazole-4-carbonitrile] is higher in AC50: 1000 to 5000 nM for the first, over 5000 nM for the second.

Same assay, conditions: A375 cells expressing human R408W PAH; 24 hrs with compound, then sepiapterin and 13C9,15N-Phenylalanine for 4 hours; 13C-Tyrosine by LC-MS; average where tested multiple times; read-out: AC50

First: Fc1cccc(F)c1-c1nnc(N2CCc3[nH]cnc3[C@H]2c2cc3ccccn3n2)o1 (single isomer, unassigned) [Example 1843]
Second: CC(C)c1nnc(N2CCc3[nH]cnc3C2c2cc3c(F)cccn3n2)o1 (stereo in doubt) [Example 2323, (S)-2-(4-(4-fluoropyrazolo [1,5-a]pyridin-2-yl)-1,4,6,7-tetrahydro-5H-imidazo [4,5-c]pyridin-5-yl)-5-isopropyl-1,3,4-oxadiazole]
The AC50 of the first is lower: under 500 nM for the first, 500 to 1000 nM for the second.

`O=C(c1cnc(-c2ccccn2)o1)N1CCc2[nH]cnc2C1c1cc2c(C(F)(F)F)cccn2n1` (stereo in doubt) [Example 2036, (S)-(2-(pyridin-2-yl)oxazol-5-yl)(4-(4-(trifluoromethyl)pyrazolo [1,5-a]pyridin-2-yl)-1,4,6,7-tetrahydro-5H-imidazo[4,5-c]pyridin-5-yl)methanone] and `O=C(c1cnc(C2CC2)o1)N1CCc2[nH]cnc2C1c1cc2c(F)cccn2n1` (stereo in doubt) [Example 2098, (S)-(2-cyclopropyloxazol-5-yl)(4-(4-fluoropyrazolo[1,5-a]pyridin-2-yl)-1,4,6,7-tetrahydro-5H-imidazo[4,5-c]pyridin-5-yl)methanone] cannot be ordered by AC50: under 500 nM for the first, under 500 nM for the second.
